Data taken from ChEMBL document CHEMBL5356973 (J Med Chem, 2023).
Calls of active or inactive are those of the source. No cut-off for these calls is given here.

Assays:
[1] = Metabolic stability in mouse brain homogenate assessed as degradation half life at 10 mM measured upto 480 mins by RP-HPLC analysis; type: ADME, tissue-based
[2] = system: Mus musculus; assay: Antinociceptive activity in Kunming mouse assessed as changes in tail flick latency by measuring maximal possible effect at 26.7 nmol/kg, sc measured after 240 mins by tail-flick test; type: functional; settings: 4 h
[3] = target: T1, Delta-type opioid receptor (Homo sapiens, UniProt P41143); assay: Agonist activity at DOR (unknown origin) transfected in CHO cells co-expressing Galphaq15 assessed as increase in calcium mobilization by Fluo-4AM dye based assay; type: functional, cell-based
[4] = target: T2, Neuropeptide FF receptor 2 (Homo sapiens, UniProt Q9Y5X5); assay: Agonist activity at NPFF2R (unknown origin) transfected in HEK293 cells co-expressing Galphaq15 assessed as increase in calcium mobilization by measuring maximal efficacy by Fluo-4AM dye based assay relative to control; type: functional, cell-based; settings: filed as agonist
[5] = target: T3, Kappa-type opioid receptor (Homo sapiens, UniProt P41145); assay: Agonist activity at KOR (unknown origin) transfected in CHO cells co-expressing Galphaq15 assessed as increase in calcium mobilization by measuring maximal efficacy by Fluo-4AM dye based assay relative to control; type: functional, cell-based; settings: filed as agonist
[6] = Agonist activity at NPFF1R (unknown origin) transfected in CHO cells co-expressing Galphaq15 assessed as increase in calcium mobilization by measuring maximal efficacy by Fluo-4AM dye based assay relative to control; type: functional, cell-based; settings: Homo sapiens, filed as agonist
[7] = system: Mus musculus; assay: Antinociceptive activity in Kunming mouse assessed as changes in tail flick latency by measuring maximal possible effect at 26.7 nmol/kg, sc measured after 60 mins by tail-flick test; type: functional; settings: 1 h
[8] = target: T3, Kappa-type opioid receptor; assay: Agonist activity at KOR (unknown origin) transfected in CHO cells co-expressing Galphaq15 assessed as increase in calcium mobilization by Fluo-4AM dye based assay; type: functional, cell-based
[9] = system: Mus musculus; assay: Antinociceptive activity in Kunming mouse assessed as changes in tail flick latency by measuring maximal possible effect at 26.7 nmol/kg, sc measured after 30 mins by tail-flick test; type: functional; settings: 0.5 h
[10] = system: Mus musculus; assay: Antinociceptive activity in Kunming mouse assessed as changes in tail flick latency by measuring maximal possible effect at 26.7 nmol/kg, sc measured after 120 mins by tail-flick test; type: functional; settings: 2 h
[11] = target: T1, Delta-type opioid receptor; assay: Agonist activity at DOR (unknown origin) transfected in CHO cells co-expressing Galphaq15 assessed as increase in calcium mobilization by measuring maximal efficacy by Fluo-4AM dye based assay relative to control; type: functional, cell-based; settings: filed as agonist
[12] = system: Mus musculus; assay: Antinociceptive activity in Kunming mouse assessed as changes in tail flick latency by measuring time duration of antinociceptive effect at 26.7 nmol/kg, sc by tail-flick test; type: functional
[13] = system: Mus musculus; assay: Antinociceptive activity in Kunming mouse assessed as changes in tail flick latency at 26.7 nmol/kg, sc pretreated with naloxone methiodide at 5 nmol, icv for 10 mins followed by compound addition and measured for 360 mins by tail-flick test; type: functional, organism-based
[14] = target: T4, Mu-type opioid receptor (Homo sapiens, UniProt P35372); assay: Agonist activity at MOR (unknown origin) transfected in CHO cells co-expressing Galphaq15 assessed as increase in calcium mobilization by measuring maximal efficacy by Fluo-4AM dye based assay relative to control; type: functional, cell-based; settings: filed as agonist
[15] = target: T2, Neuropeptide FF receptor 2; assay: Agonist activity at NPFF2R (unknown origin) transfected in HEK293 cells co-expressing Galphaq15 assessed as increase in calcium mobilization by Fluo-4AM dye based assay; type: functional, cell-based
[16] = system: Mus musculus; assay: Antinociceptive activity in Kunming mouse assessed as changes in tail flick latency by measuring maximal possible effect at 26.7 nmol/kg, sc measured after 20 mins by tail-flick test; type: functional
[17] = Metabolic stability in mouse plasma assessed as degradation half life at 10 mM measured upto 480 mins by RP-HPLC analysis; type: ADME, cell-free
[18] = target: T4, Mu-type opioid receptor; assay: Agonist activity at MOR (unknown origin) transfected in CHO cells co-expressing Galphaq15 assessed as increase in calcium mobilization by Fluo-4AM dye based assay; type: functional, cell-based
[19] = Toxicity in sc dosed 16 hrs fasted Kunming mouse assessed as constipation by measuring inhibition of gastrointestinal transit administered for 15 mins followed by charcoal meal and measured after 30 mins; type: organism-based; settings: in vivo, 0.75 h, time 45 min
[20] = Toxicity in Kunming mouse assessed as effect on locomotor activity at 88 nmol/kg, sc measured after 20 to 180 mins by open field test; type: organism-based; settings: in vivo, time 20-180 min
[21] = system: Mus musculus; assay: Antinociceptive activity in Kunming mouse assessed as changes in tail flick latency by measuring time duration of action at 0.88 to 8.82 nmol/kg, po measured for 360 mins by tail-flick test; type: functional; settings: dose 0.88-8.82 nmol/kg, 6 h
[22] = system: Mus musculus; assay: Antinociceptive activity in icv dosed Kunming mouse assessed as changes in tail flick latency measured for 360 mins by tail-flick test; type: functional
[23] = system: Mus musculus; assay: Antinociceptive activity in po dosed Kunming mouse assessed as changes in tail flick latency measured for 360 mins by tail-flick test; type: functional
[24] = Toxicity in Kunming mouse assessed as reduction in respiration frequency at 88 nmol/kg, sc measured upto 100 mins by whole-body plethysmography; type: organism-based; settings: in vivo, 1.667 h
[25] = system: Mus musculus; assay: Antinociceptive activity in Kunming mouse assessed as changes in tail flick latency by measuring maximal possible effect at 0.88 nmol/kg, sc measured after 30 mins by tail-flick test; type: functional; settings: 0.5 h
[26] = system: Mus musculus; assay: Antinociceptive activity in Kunming mouse assessed as changes in tail flick latency by measuring time duration of antinociceptive effect at 0.88 nmol/kg, sc by tail-flick test; type: functional
[27] = system: Mus musculus; assay: Antinociceptive activity in Kunming mouse assessed as changes in tail flick latency at 0.88 nmol/kg, sc pretreated with beta-funaltrexamine at 10 nmol, icv for 4 hrs followed by compound addition and measured for 360 mins by tail-flick test; type: functional, organism-based
[28] = Toxicity in Kunming mouse assessed as addiction behavior at 88 nmol/kg, sc administered for 3 days starting from day 2 and measured on day 5 by conditioned place preference test; type: organism-based; settings: in vivo, 96 h, time 4 day
[29] = system: Mus musculus; assay: Antinociceptive activity in Kunming mouse assessed as changes in tail flick latency by measuring maximal possible effect at 0.88 nmol/kg, sc measured after 60 mins by tail-flick test; type: functional; settings: 1 h
[30] = system: Mus musculus; assay: Antinociceptive activity in Kunming mouse assessed as changes in tail flick latency by measuring maximal possible effect at 0.88 nmol/kg, sc measured after 120 mins by tail-flick test; type: functional; settings: 2 h
[31] = Toxicity in sc dosed Kunming mouse assessed as effect on naloxone-induced jumping response at 88 nmol/kg, sc administered every 8 hrs for 3 days followed by naloxone administration at 2 hrs post last dose and measured immediately by Nal-precipitated withdraw test; type: organism-based; settings: in vivo, 74 h
[32] = system: Mus musculus; assay: Antinociceptive activity in Kunming mouse assessed as changes in tail flick latency at 0.88 nmol/kg, sc pretreated with naloxone methiodide at 5 nmol, icv for 10 mins followed by compound addition and measured for 360 mins by tail-flick test; type: functional, organism-based
[33] = system: Mus musculus; assay: Antinociceptive activity in Kunming mouse assessed as changes in tail flick latency by measuring maximal possible effect at 0.88 nmol/kg, sc measured after 240 mins by tail-flick test; type: functional; settings: 4 h
[34] = Induction of antinociceptive tolerance in Kunming mouse assessed as decrease in tail flick latency at 0.88 nmol/kg, sc administered once daily for 8 days and measured once daily by tail-flick test; type: toxicity, organism-based; settings: in vivo, 192 h, time 8 day
[35] = system: Mus musculus; assay: Antinociceptive activity in sc dosed Kunming mouse assessed as changes in tail flick latency measured after 10 to 360 mins by tail-flick test; type: functional; settings: time 10-360 min
[36] = system: Mus musculus; assay: Antinociceptive activity in Kunming mouse assessed as changes in tail flick latency at 0.88 nmol/kg, sc pretreated with nor-binaltorphimine at 10 nmol, icv for 30 mins followed by compound addition and measured for 360 mins by tail-flick test; type: functional, organism-based
[37] = system: Mus musculus; assay: Antinociceptive activity in Kunming mouse assessed as changes in tail flick latency by measuring time duration of action at 1 to 10 pmol, icv measured for 360 mins by tail-flick test; type: functional; settings: dose 1-10 pmol, 6 h
[38] = Toxicity in Kunming mouse assessed as effect on motor coordination at 88 nmol/kg, sc measured after 15 to 45 mins by rotarod test; type: organism-based; settings: in vivo, time 15-45 min
[39] = system: Mus musculus; assay: Antinociceptive activity in Kunming mouse assessed as changes in tail flick latency at 0.88 nmol/kg, sc pretreated with naltrindole at 10 nmol, icv for 10 mins followed by compound addition and measured for 360 mins by tail-flick test; type: functional, organism-based
[40] = system: Mus musculus; assay: Antinociceptive activity in Kunming mouse assessed as changes in tail flick latency by measuring maximal possible effect at 0.88 nmol/kg, sc measured after 20 mins by tail-flick test; type: functional
[41] = system: Mus musculus; assay: Antinociceptive activity in Kunming mouse assessed as changes in tail flick latency at 0.009 nmol/kg, sc pretreated with 1-adamantanecarbonyl-RF-NH2 at 10 nmol, icv for 5 mins followed by compound addition and measured for 360 mins by tail-flick test; type: functional, organism-based

T2 sequence (Q9Y5X5 whole entry): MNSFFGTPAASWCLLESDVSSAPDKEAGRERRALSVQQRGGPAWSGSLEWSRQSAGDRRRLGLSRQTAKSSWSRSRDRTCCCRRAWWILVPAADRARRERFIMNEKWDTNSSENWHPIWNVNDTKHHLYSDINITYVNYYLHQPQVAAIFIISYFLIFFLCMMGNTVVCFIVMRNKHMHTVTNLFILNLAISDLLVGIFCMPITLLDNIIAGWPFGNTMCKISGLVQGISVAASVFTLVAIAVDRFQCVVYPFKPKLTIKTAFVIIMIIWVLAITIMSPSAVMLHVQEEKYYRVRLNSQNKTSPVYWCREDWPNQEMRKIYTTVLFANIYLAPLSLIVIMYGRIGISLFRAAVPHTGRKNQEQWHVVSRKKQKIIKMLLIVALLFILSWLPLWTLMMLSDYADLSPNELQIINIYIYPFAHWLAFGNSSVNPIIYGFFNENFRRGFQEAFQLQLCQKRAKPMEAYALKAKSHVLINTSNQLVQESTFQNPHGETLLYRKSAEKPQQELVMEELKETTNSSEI
T1 sequence (P41143 whole entry): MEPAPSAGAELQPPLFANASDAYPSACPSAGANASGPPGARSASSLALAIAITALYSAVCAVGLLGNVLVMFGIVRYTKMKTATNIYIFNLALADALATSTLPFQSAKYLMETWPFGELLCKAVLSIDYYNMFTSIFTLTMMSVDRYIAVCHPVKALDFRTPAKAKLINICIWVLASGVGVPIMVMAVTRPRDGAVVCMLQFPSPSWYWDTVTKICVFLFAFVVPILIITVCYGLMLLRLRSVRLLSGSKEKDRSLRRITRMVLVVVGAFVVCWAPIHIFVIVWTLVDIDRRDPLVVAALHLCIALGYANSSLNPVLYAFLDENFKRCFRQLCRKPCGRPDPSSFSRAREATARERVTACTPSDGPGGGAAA
T3 sequence (P41145 whole entry): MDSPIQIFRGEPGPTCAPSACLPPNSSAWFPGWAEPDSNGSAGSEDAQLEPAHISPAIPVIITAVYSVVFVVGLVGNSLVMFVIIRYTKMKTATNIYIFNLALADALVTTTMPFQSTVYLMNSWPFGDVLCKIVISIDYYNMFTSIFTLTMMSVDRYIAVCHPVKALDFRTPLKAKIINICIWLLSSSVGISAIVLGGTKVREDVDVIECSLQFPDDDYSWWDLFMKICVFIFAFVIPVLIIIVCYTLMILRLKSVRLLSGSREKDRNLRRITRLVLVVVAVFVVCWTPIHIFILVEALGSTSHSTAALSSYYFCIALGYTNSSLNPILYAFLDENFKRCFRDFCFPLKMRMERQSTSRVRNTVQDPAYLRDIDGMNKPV
T4 sequence (P35372 whole entry): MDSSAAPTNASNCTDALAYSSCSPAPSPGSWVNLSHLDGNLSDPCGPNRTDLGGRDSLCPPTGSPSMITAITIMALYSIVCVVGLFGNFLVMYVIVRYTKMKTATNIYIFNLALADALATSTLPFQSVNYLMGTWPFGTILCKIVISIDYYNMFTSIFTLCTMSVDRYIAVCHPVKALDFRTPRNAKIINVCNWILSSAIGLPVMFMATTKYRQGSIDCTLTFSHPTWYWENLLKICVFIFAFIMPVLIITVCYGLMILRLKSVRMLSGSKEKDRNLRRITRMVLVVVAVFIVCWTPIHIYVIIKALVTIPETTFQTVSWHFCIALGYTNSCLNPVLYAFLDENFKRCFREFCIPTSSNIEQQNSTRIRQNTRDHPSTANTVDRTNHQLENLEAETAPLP

CN1C(=O)CNC(=O)[C@H](N[C@@H](Cc2ccc(O)cc2)C(=O)O)CCC/C=C/C[C@@H](C(=O)N2CCC[C@H]2C(=O)N[C@@H](CCC(N)=O)C(=O)N[C@@H](CCCNC(=N)N)C(=O)N[C@@H](Cc2ccccc2)C(N)=O)NC(=O)[C@@H]1Cc1ccccc1
half-life at 10000 µM [1]: 1.52 h
MPE [2]: 44.7%
EC50 [3]: 27.7 nM
Emax [4]: 77.9%
Emax [5]: 98.3%
Emax [6]: 129%
MPE [7]: 81.9%
EC50 [8]: 124 nM
MPE [9]: 96%
MPE [10]: 65.5%
Emax [11]: 93%
Time [12]: 360 min
Activity [13]: inactive
Emax [14]: 120%
EC50 [15]: 52.3 nM
MPE [16]: 94.2%
half-life at 10000 µM [17]: 1.01 h
EC50 [18]: 38.9 nM

CN1C(=O)CNC(=O)[C@H](N[C@@H](Cc2ccc(O)cc2)C(=O)O)CCCC/C=C/C[C@@H](C(=O)N2CCC[C@H]2C(=O)N[C@@H](CCC(N)=O)C(=O)N[C@@H](CCCNC(=N)N)C(=O)N[C@@H](Cc2ccccc2)C(N)=O)NC(=O)[C@@H]1Cc1ccccc1
half-life at 10000 µM [1]: 2.98 h
ED50 [19]: 95.4 nmol/kg
Activity [20]: Non-Toxic
Time [21]: <=360 min
Activity [22]: Dose-Dependent Effect
ED50 ([22]; 6 h): 1.82 pmol
EC50 [3]: 228 nM
Activity [23]: Dose-Dependent Effect
ED50 ([23]; 6 h): 0.00195 µmol/kg
Activity [24]: Non-Toxic
Emax [4]: 119%
Emax [5]: 106%
MPE [25]: 77.2%
Time [26]: 360 min
Activity [27]: inactive
Activity [28]: Non-Toxic
MPE [29]: 80.5%
MPE [30]: 72.8%
Emax [6]: 88.1%
Activity [31]: Non-Toxic
EC50 [8]: 346 nM
Emax [11]: 77.3%
Activity [32]: inactive
MPE [33]: 43.5%
Activity [34]: Non-Toxic
Activity [35]: Dose-Dependent Effect
ED50 [35]: 2e-05 µmol/kg
Activity [36]: inactive
Time [37]: <=360 min
Emax [14]: 95%
Activity [38]: Non-Toxic
EC50 [15]: 33.1 nM
Activity [39]: Active
MPE [40]: 89.9%
Activity [41]: Active
half-life at 10000 µM [17]: 0.63 h
EC50 [18]: 15.9 nM
